Experimental data reported in US9796730B2, “Halogenated benzoxazines and their use” (priority 2012, dated 2017).

Assays:
[1] = Storage stability of the isolated title compound; assay type: physicochemical; settings: within 12 hours at −25° C.
Method: The title compound is instable and decomposes within 12 hours to 50% at −25° C. For this reason the title compound is further converted directly after the isolation.

Aβ plaques [2] = assay: Detection of Aβ plaques by means of optical imaging (OI) in the mouse model; assay type: in vivo, transgenic APPPS1 mice and non-transgenic control mice
Method: Detection of Aβ Plaques by Means of Optical Imaging (OI) in the Mouse Model
The compound was formulated in physiological saline solution (0.9% NaCl) in a concentration of 0.05 mg/ml and intravenously injected into the mice. In the following the mice were examined by means of OI (Aequoria Hamamatsu Optical Imaging System), the signal was detected at 650 nm.
It is clear for the skilled person that this labeling can—depending on the kind of labeling—be realized by any method, such as OI, PET (e.g. with ^76Br, ^75Br or ^18F labeled compounds) or MRT (e.g. with ^19F labeled compounds).
The signal strength was quantified as a relative fluorescence signal, whereby 30 min after the injection was chosen as the reference point in time. The signal strength was calculated by percentage after the subtraction of the auto fluorescence (resulting in relative intensity values, Irel) and then the percentage difference between the transgenic and control mice—in the following referred to as specific binding (Bsp)—was calculated and plotted against the age of the transgenic mice (see FIG. 3). It turned out that there is a significant correlation between the age and the development of the Alzheimer's disease and the signal strength, where it was especially noted that the compound according to the invention has no saturation or ceiling effects in a way that the signal strength is not increasing at a specific concentration of Aβ plaques. To the contrary, at the age of 21 months for the transgenic mice a particularly strong signal has been measured.

Aβ plaques [3] = assay: Detection of Aβ plaques by means of MRT and optical fluorescence measurements in the mice model; assay type: in vivo, transgenic APP23 mice and non-transgenic control mice; settings: age 28 months, 2 mg/kg body weight
Description: Detection of Aβ Plaques by Means of MRT in the Mice Model
For the MRT measurements a threedimensional gradient echosequence (gre3D) which both comprises T1 as well as T2* parts, and a quantitative T2 value determination sequence (T2map) were used.
The observations made in vivo could also be confirmed ex vivo after a preparation of the brains.

Compound: Oc1ccc2c(c1)N(CCBr)CCO2 [Example 13A, 4-(2-Bromoethyl)-3,4-dihydro-2H-benzo[b][1,4]oxazin-6-ol]
- decomposition on storage [1]: 50%

Compound: CCN1CCOc2cc3c(cc21)Oc1cc2c(cc1=N3)OCC[N+]=2CC[18F] [Example 3, [F-18]-8-Ethyl-4-(2-Fluoroethyl)-3,8,9,10-tetrahydro-2H-bis([1,4]-oxazino)[2,3-b:3′,2′-i]phenoxazin-4-ium chloride]
- binding to Aβ plaques (summary of OI examinations) (Aβ plaques [2]; in vivo, OI): selectively binds to Aβ plaques
- accumulation in control mice (OI signal) (Aβ plaques [2]; non-transgenic control mice, 0.1 mg/kg body weight i.v., signal at 650 nm, FIG. 1): no accumulation could be detected
- accumulation in transgenic mice (OI signal) (Aβ plaques [2]; transgenic APPPS1 mice, 0.1 mg/kg body weight i.v., signal at 650 nm, FIG. 1 (age 12 months, 120 min after injection)): specifically accumulates in transgenic mice
- enrichment as a function of the age of the transgenic mice (Aβ plaques [2]; transgenic APPPS1 mice, 0.1 mg/kg i.v., OI): increases with the age of the transgenic mice
- enrichment in transgenic mice of an age of 2 months (Aβ plaques [2]; transgenic APPPS1 mice, age 2 months, 0.1 mg/kg i.v., OI, FIG. 2): no enrichment can be detected
- enrichment in transgenic mice at the age of 12 months (Aβ plaques [2]; transgenic APPPS1 mice, age 12 months, 0.1 mg/kg i.v., OI, FIG. 2): a significant enrichment can be seen

Compound: CCN1CCOc2cc3c(cc21)Oc1cc2c(cc1=N3)OCC[N+]=2CC[19F] [Example 1, 8-Ethyl-4-(2-fluoroethyl)-3,8,9,10-tetrahydro-2H-bis([1,4]oxazino)[2,3-b:3′,2′-i]phenoxazin-4-ium chloride]
- enrichment in control mice (MRT and fluorescence) (Aβ plaques [3]; non-transgenic control mice): neither for the MRT measurements nor the fluorescence measurements a specific enrichment
- enrichment in transgenic mice (MRT and fluorescence) (Aβ plaques [3]; transgenic APP23 mice, measurement period 90 minutes): a specific enrichment in the transgenic mice could be detected
